From PubChem BioAssay AID179 (DTP/NCI, 2004)
“And” between values parts separate entries of the source, which are not always exact repeats. Equal entries are not always repeated. The source made the active and inactive calls.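 Rule for the calls: active = compounds giving half or more protection of infected cells from virus-caused growth loss, again on retest; inactive = the rest.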

System: CEM cells HIV-1 protection, formazan growth assay
Test: NCI AIDS Antiviral Assay
Details: for IC50: measured here: growth of uninfected CEM cells
Procedure, shortened: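 Category rules: moderately active means at least 50% protection on retest, and confirmed active means 100% protection reproducibly. The underlying data came from a formazan growth assay in HIV-1-infected CEM cells.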

Row | Structure (SMILES) | EC50 | IC50 | outcome
1 | C[C@]12CC[C@H](OC3OC(CO)C(O)C(O)C3O)C[C@H]1CC[C@@H]1[C@@H]2CC[C@]2(C)[C@@H](C3=CCOC3=O)CC[C@]12O (some centres undefined) | > 100 µM | 0.0661 µM | –
2 | Cc1ccccc1C(C#N)C(=O)C(=O)Nc1cccc(Cl)c1 (centres undefined) | > 417 µM | > 417 µM | –
3 | O=C(CCC(=O)C1CCC/C1=N/O)Nc1ccc(Cl)cc1 (centres undefined) | > 302 µM | 1.12 µM | –
4 | Cc1ccc(NC(=O)CC(=O)n2nc(-c3ccccc3)c(N=Nc3ccccc3Cl)c2-c2ccccc2)cc1 | > 9.77 µM | > 9.77 µM | –
5 | CC(C)CCCC(C)[C@H]1CC[C@H]2[C@@H]3CC[C@H]4C[C@@H](CCC=C(c5cc(Cl)c(OCc6cccc(C(=O)O)c6)c(C(=O)O)c5)c5cc(Cl)c(OCc6cccc(C(=O)O)c6)c(C(=O)O)c5)CC[C@]4(C)[C@H]3CC[C@]12C (some centres undefined) | 5.5 µM and 1.78 µM | > 200 µM | –
6 | CN(C)CN(C)c1nc(N(C)C)nc(N(C)CN(C)C)n1 | > 200 µM | 32.4 µM | –
7 | Cn1c(=O)c2c(nc3n(C)c(=O)c4ccccc4n23)n(C)c1=O | > 200 µM | 2.51 µM | –
8 | CC(=O)NNC(=S)N/C=C/c1c(C)ccc([N+](=O)[O-])c1[N+](=O)[O-] | > 200 µM | 41.7 µM | –
9 | COC1C(=O)CCC2(CO2)C1(O)C1(C)OC1CCC(C)C (centres undefined) | > 200 µM | 4.37 µM | –
10 | Cc1ccc(S(=O)(=O)NC(=O)NC2=NC(C)(C)N(c3ccc(Cl)c(Cl)c3)C(N)=N2)cc1 | > 200 µM | 4.27 µM | –
11 | O=C1OC2CCCC1O2 (centres undefined) | > 200 µM | > 200 µM | –
12 | O=c1c2cc(Br)ccc2n(C2OC(CO)C(O)C(O)C2O)c(=S)n1-c1ccccc1 (centres undefined) | > 52.5 µM | > 52.5 µM | –
13 | C=CCC(N)Cc1ccccc1 (centres undefined) | > 200 µM | > 200 µM | –
14 | COC(=O)c1cnc2nc(N3CCOCC3)[nH]n2c1=O | > 12.9 µM | > 12.9 µM | –
15 | O=S(Nc1ccccc1)c1ccc(Cl)c(Cl)c1 (centres undefined) | > 200 µM | > 200 µM | –
16 | COc1ccc2c(c1)c1c(n2CCN2CCOCC2)-c2cccc(OC)c2CC1 | – | – | inactive
17 | COc1ccc(COC2C(C/[N+]([O-])=N\Nc3ccc([N+](=O)[O-])cc3)OC3OC(C)(C)OC32)cc1 (centres undefined) | > 200 µM | 12.6 µM | –
18 | COC(=O)C(=O)Nc1cc2c3c(c1)Oc1cccc4c1C3(C)c1c(cccc1O2)O4 | 28.2 µM | 126 µM | –
19 | CCCCCC=C(c1cc(Br)c(OC)c(C(=O)O)c1)c1cc(Br)c(OC)c(C(=O)O)c1 | > 200 µM | 91.2 µM | –
20 | O=C(NCCCNCCN1C(=O)c2cccc3cc([N+](=O)[O-])cc(c23)C1=O)c1cc(-c2ccccc2)nc2ccccc12 | > 200 µM | 1.05 µM | –
21 | CN=C1OC2(c3ccccc3)C3=C(OC(=NC)N2C)C(=O)OC3(c2ccccc2)N1C (centres undefined) | > 200 µM | 148 µM | –

Row | Structure (SMILES) | EC50 | IC50 | outcome
22 | COc1ccc2c(c1)CCc1c-2n(CCN(C)C)c2ccc(OC)cc12 | > 200 µM | 6.17 µM | –
23 | BrCC[P+](c1ccccc1)(c1ccccc1)c1ccccc1 | > 200 µM | 3.98 µM | –
24 | CCCCN(CCCC)C(=O)COc1cc2c(O)c3c(O)c(C)c4c(c13)C(=O)C(C)(O/C=C/C(OC)C(C)C(OC(C)=O)C(C)C(O)C(C)C(O)C(C)/C=C/C=C(\C)C(=O)N2)O4 (centres undefined) | > 91.2 µM | 11 µM | –
25 | CC(=O)/C(=C/c1ccc(-c2ccccc2)cc1)C(=O)c1ccccc1 | 1.58 µM | 15.8 µM | –
26 | O=c1c(=O)c2c3c(ccc12)OCO3 | – | – | inactive
27 | Cc1cn(C2CC(N(O)Cc3ccccc3)C(CO[Si](C)(C)C(C)(C)C)O2)c(=O)[nH]c1=O (centres undefined) | > 200 µM | 12 µM and 36.3 µM | –
28 | O=[N+]([O-])c1c(Br)cc(Br)c2c1Nc1c(ccc(Cl)c1Cl)S2 | > 200 µM | 4.9 µM | –
29 | OC1CC=C2CCN3Cc4cc5c(cc4C1C23)OCO5 (centres undefined) | – | – | inactive
30 | CC[C@]12C=CCN3CCC4(c5cc([C@]6(C(=O)OC)C[C@H]7CN(CCc8c6[nH]c6ccccc86)C[C@@H]6CCCC[C@H]76)c(OC)cc5N(C)C4[C@@](O)(C(=O)OC)C1OC(C)=O)[C@@H]32 (some centres undefined) | > 240 µM | 1.32 µM | –
31 | Cc1nc(-n2nc(-c3ccccc3)cc2-c2ccccc2)sc1C(=O)/C=C/c1ccccc1 | > 16.2 µM | 8.32 µM | –
32 | O=C(/C=C(\O)c1ccc(Cl)cc1)C(=O)NN=C(c1ccccc1)c1ccccc1 | > 200 µM | 16.6 µM | –
33 | O=C1OC2C=CCC1C2 (centres undefined) | > 200 µM | > 200 µM | –
34 | COc1cc2c(c(O)c1OC)C(=O)[C@@H]1CCC(=O)N1C2 | > 123 µM | 112 µM | –
35 | CCc1n[nH]c(=O)n1O | > 200 µM | > 200 µM | –
36 | CC(=O)NCCSSCCSC(=S)N1CCCCC1 | > 200 µM | 33.9 µM | –
37 | COc1cc(C2c3cc4c(c(O)c3C[C@H]3COC(=O)[C@@H]23)OCO4)cc(OC)c1OC (some centres undefined) | > 200 µM | 0.468 µM | –
38 | CN(C)c1nc(Cl)c2c(-c3ccccc3)c(-c3ccccc3)oc2n1 | – | – | inactive
39 | O=C1C(Cl)=C(Cl)C(=O)N1c1c(F)c(F)c(F)c(F)c1F | – | – | inactive
40 | NC(=O)/C=C/c1c[nH]c2nccnc12 | > 191 µM | 0.977 µM | –
41 | CC(=O)NC(C)(C)C1CCC(C)CC1 (centres undefined) | > 200 µM | > 200 µM | –
42 | O=C(N[C@H](CO)[C@H](O)c1ccc([N+](=O)[O-])cc1)C(Cl)Cl | > 200 µM | > 200 µM | –
